Measurements as given in patent US20210040089A1, “KRAS MUTANT PROTEIN INHIBITORS” (Jacobio Pharmaceuticals Co., Ltd., priority 2019, published 2021).

Tests used:
[1] = test system: Phospho-ERK1/2(THR202/TYR204) in NCI-H358 cells express KRAS G12C; experiment: Phospho-ERK1/2(THR202/TYR204) HTRF assay; assay type: cell-based; conditions: Homo sapiens; NCI-H358, 2 hours incubation; read-out: p-ERK inhibition in NCI-H358 IC50
Procedure: NCI-H358 cells express KRAS G12C were cultured in RPMI 1640 medium (Gibco) containing 10% fetal bovine serum (Gibco). Cells in culture medium were plated in 96-well plates at a concentration of 40,000 cells/well and allowed to attach overnight. The next day, culture medium was removed and added compounds diluted in assay medium (RPMI 1640, 0.1% EFBS). After 2 hours incubation in a 37° C./5% CO2 cell incubator, the assay medium was removed, then 50 μL of 1× supplemented lysis buffer (Cisbio) was added and the plates were incubated at 25° C. for 45 min with shaking. 10 μL of cell lysates from the 96-well plates were transferred to a 384-well plate (Greiner) containing 2.5 µL/well HTRF® pre-mixed antibodies (Cisbio 64AERPEH).
Incubate 4 hours at 25° C. and then read HTRF signals on Tecan Spark multimode microplate reader. The data were analyzed using a 4-parameter logistic model to calculate IC50 values.

KRAS G12C = target: T1, KRAS G12C (Homo sapiens, UniProt P01116, G12C); experiment: SOS1 catalyzed nucleotide exchange assay (TR-FRET); assay type: biochemical; conditions: GDP-loaded HIS-KRAS(G12C), 1 hour pre-incubation with compound
T1 construct: HIS-KRAS (G12C, aa 2-185, Sino biological); purchased Sino biological
T1 sequence (P01116 2-185 isoform P01116-2 G12C): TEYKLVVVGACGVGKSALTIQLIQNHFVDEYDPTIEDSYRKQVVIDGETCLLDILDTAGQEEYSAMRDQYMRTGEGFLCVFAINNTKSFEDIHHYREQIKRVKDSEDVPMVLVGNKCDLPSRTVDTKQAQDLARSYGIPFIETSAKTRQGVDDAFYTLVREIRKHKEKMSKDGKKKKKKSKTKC
Procedure: 1. SOS1 Catalyzed Nucleotide Exchange Assay
HIS-KRAS (G12C, aa 2-185, Sino biological) was diluted to […] EDTA buffer (20 mM HEPES, pH 7.4, 50 mM NaCl, 10 mM EDA, 0.01% (v/v) Tween-20) and incubated for 30 min at 25° C. The EDTA pretreated HIS-KRAS(G12C) was diluted to 12 nM in assay buffer (25 mM HEPES, pH 7.4, 120 mM NaCl, 5 mM MgCl2, 1 mM DTI, 0.01% (v/v) Tween 20, 0.1% (w/v) BSA) containing 120 nM GDP(Sigma) and Mab Anti 6HIS-Tb cryptate Gold(Cisbio) and incubated for 1 hour at 25° C. to prepare GDP-loaded HIS-KRAS(G12C). The GDP-loaded HIS-KRAS(G12C) was pre-incubation with diluted compounds in a 384-well plate (Greiner) for 1 hour, then purified SOS 1ExD (Flag tag, aa 564-1049) and BODIPY™FL GTP (Invitrogen) were added to the assay wells (Final concentration: 3 nM HIS-KRAS(G12C), 2 μM SOS1 ExD, 80 nM BODIPY™FL GTP, 21 ng/mL MAb Anti 6HS-Tb cryptate Gold) and incubated for 4 hours at 25° C. TR-FRET signals were then read on Tecan Spark multimode microplate reader. The parameters were F486: Excitation 340 (35) nm, Emission 486 (10) nm, Lag time 100 μs, Integration time […]; F515: Excitation 340 (35) nm, Emission 515 (10) nm, Lag time […], Integration time 200 s. TR-FRET ratios for each individual wells were calculated by equation: TR-FRET ratio=(Signal F515/Signal F486)*10000. Then the data were analyzed using a 4-parameter logistic model to calculate IC50 values.

[2] = test system: NCI-H358 cells express KRAS G12C; experiment: Cell growth inhibition assay (CCK-8); assay type: cell-based; conditions: Homo sapiens, 144 h; NCI-H358, 6 days incubation
Procedure: 3. Cell Growth inhibition assay
NCI-H358 cells express KRAS G12C were cultured in RPMI 1640 medium (Gibco) containing 10% fetal bovine serum (Gibco). Cells in culture medium were plated in 96-well plates at a concentration of 3000 cells/well ([…]) and allowed to attach overnight. The next day, compounds were diluted in culture medium and added to the plates. After 6 days incubation in a 37° C./5% CO2 cell incubator, the medium was removed, then 100 μL of 1×CCK-8 (MCE) in culture medium was added in each well. The plates were incubated 1.5-2 hours in a 37° C./5% CO2 cell incubator. OD450 signals were read on Tecan Spark multimode microplate reader and analyzed using a 4-parameter logistic model to calculate IC50 values.

Row | Compound | IC50 [1] | IC50 (KRAS G12C) | IC50 [2]
1 | C=CC(=O)N1CCN(c2nc(O[C@H]3CCCC[C@@H]3N(C)C)nc3c2CCN(c2cccc4ccccc24)C3)CC1CC#N (stereo partly drawn) [Compound 60, 2-(1-acryloyl-4-(2-(((1S,2S)-2-(dimethylamino)cyclohexyl)oxy)-7-(naphthalen-1-yl)-5,6,7,8-tetrahydropyrido[3,4-d]pyrimidin-4-yl)piperazin-2-yl)acetonitrile] | 7.12 µM |  | 
2 | C=CC(=O)N1CCN(c2nc(OCC3(CN(C)C)CC3)nc3c2CCN(c2cccc4ccn(C)c(=O)c24)C3)CC1CC#N (centres unmarked) [Compound 2, 2-(1-acryloyl-4-(2-((1-((dimethylamino)methyl)cyclopropyl)methoxy)-7-(2-methyl-1-oxo-1,2-dihydroisoquinolin-8-yl)-5,6,7,8-tetrahydropyrido[3,4-d]pyrimidin-4-yl)piperazin-2-yl)acetonitrile] |  | > 0.5 µM | 
3 | C=CC(=O)N1CCN(c2nc(OC3CCCCC3N(C)C)nc3c2CCN(c2cccc4ccccc24)C3)CC1CC#N (centres unmarked) [Compound 11, 2-(1-acryloyl-4-(2-((2-(dimethylamino)cyclohexyl)oxy)-7-(naphthalen-1-yl)-5,6,7,8-tetrahydropyrido[3,4-d]pyrimidin-4-yl)piperazin-2-yl)acetonitrile] | 9.86 µM |  | 
4 | C=C(F)C(=O)N1CCN(c2nc(OCC3(CN(C)C)CC3)nc3c2CCN(c2cccc(C)c2C)C3)CC1CC#N (centres unmarked) [Compound 80, 2-(4-(2-((1-((dimethylamino)methyl)cyclopropyl)methoxy)-7-(2,3-dimethylphenyl)-5,6,7,8-tetrahydropyrido[3,4-d]pyrimidin-4-yl)-1-(2-fluoroacryloyl)piperazin-2-yl)acetonitrile] | > 0.5 µM | 0.285 µM | 
5 | C=CC(=O)N1CCN(c2nc(OCC3CCC(N(C)C)C3)nc3c2CCN(c2cccc(F)c2Cl)C3)CC1CC#N (centres unmarked) [Compound 29, 2-(1-acryloyl-4-(7-(2-chloro-3-fluorophenyl)-2-((3-(dimethylamino)cyclopentyl)methoxy)-5,6,7,8-tetrahydropyrido[3,4-d]pyrimidin-4-yl)piperazin-2-yl)acetonitrile] | > 1 µM |  | 
6 | C=CC(=O)N1CCN(c2nc(OCC3(CN(C)C)CC3)nc3c2CCN(c2cccc4scnc24)C3)CC1CC#N (centres unmarked) [Compound 52, 2-(1-acryloyl-4-(7-(benzo[d]thiazol-4-yl)-2-((1-((dimethylamino)methyl)cyclopropyl)methoxy)-5,6,7,8-tetrahydropyrido[3,4-d]pyrimidin-4-yl)piperazin-2-yl)acetonitrile] | > 0.5 µM | 0.485 µM | 
7 | C=CC(=O)N1CCN(c2nc(OCC3(CN(C)C)CC3)nc3c2CCN(c2cccc4c2OCC4)C3)CC1CC#N (centres unmarked) [Compound 53, 2-(1-acryloyl-4-(7-(2,3-dihydrobenzofuran-7-yl)-2-((1-((dimethylamino)methyl)cyclopropyl)methoxy)-5,6,7,8-tetrahydropyrido[3,4-d]pyrimidin-4-yl)piperazin-2-yl)acetonitrile] | > 0.5 µM | 0.174 µM | 
8 | C=CC(=O)N1CCN(c2nc(OC3CCCC3N3CCN(C)CC3)nc3c2CCN(c2cccc4ccccc24)C3)CC1CC#N (centres unmarked) [Compound 16, 2-(1-acryloyl-4-(2-((2-(4-methylpiperazin-1-yl)cyclopentyl)oxy)-7-(naphthalen-1-yl)-5,6,7,8-tetrahydropyrido[3,4-d]pyrimidin-4-yl)piperazin-2-yl)acetonitrile] | 7.06 µM |  | 
9 | C/C=C/C(=O)N1CCN(c2nc(OCC3(CN(C)C)CC3)nc3c2CCN(c2cccc(C)c2C)C3)CC1CC#N (centres unmarked) [Compound 82, (E)-2-(1-(but-2-enoyl)-4-(2-((1-((dimethylamino)methyl)cyclopropyl)methoxy)-7-(2,3-dimethylphenyl)-5,6,7,8-tetrahydropyrido[3,4-d]pyrimidin-4-yl)piperazin-2-yl)acetonitrile] | > 0.5 µM | 0.211 µM | 
10 | C=CC(=O)N1CCN(c2nc(OCC3(N(C)C)CCC3)nc3c2CCN(c2cccc4ccccc24)C3)CC1CC#N (centres unmarked) [Compound 9, 2-(1-acryloyl-4-(2-((1-(dimethylamino)cyclobutyl)methoxy)-7-(naphthalen-1-yl)-5,6,7,8-tetrahydropyrido[3,4-d]pyrimidin-4-yl)piperazin-2-yl)acetonitrile] | 1.15 µM |  | 0.888 µM
11 | C=CC(=O)N1CCN(c2nc(OCC3(CN(C)C)CC3)nc3c2CCN(c2c(N)cccc2F)C3)CC1CC#N (centres unmarked) [Compound 55, 2-(1-acryloyl-4-(7-(2-amino-6-fluorophenyl)-2-((1-((dimethylamino)methyl)cyclopropyl)methoxy)-5,6,7,8-tetrahydropyrido[3,4-d]pyrimidin-4-yl)piperazin-2-yl)acetonitrile] |  | > 0.5 µM | 
12 | C=CC(=O)N1CCN(c2nc(OCC3CCC(N4CCCC4)C3)nc3c2CCN(c2cccc4ccccc24)C3)CC1CC#N (centres unmarked) [Compound 33, 2-(1-acryloyl-4-(7-(26aphthalene-1-yl)-2-((3-(pyrrolidin-1-yl)cyclopentyl)methoxy)-5,6,7,8-tetrahydropyrido[3,4-d]pyrimidin-4-yl)piperazin-2-yl)acetonitrile] | 0.302 µM |  | 0.652 µM
13 | C=CC(=O)N1CCN(c2nc(OC3CCC(N(C)C)C3)nc3c2CCN(c2cccc4ccccc24)C3)CC1CC#N (centres unmarked) [Compound 13, 2-(1-acryloyl-4-(2-((3-(dimethylamino)cyclopentyl)oxy)-7-(naphthalen-1-yl)-5,6,7,8-tetrahydropyrido[3,4-d]pyrimidin-4-yl)piperazin-2-yl)acetonitrile] | 1.21 µM | 0.684 µM | 
14 | C=CC(=O)N1CCN(c2nc(OCCC3CCCC3N(C)C)nc3c2CCN(c2cccc4ccccc24)C3)CC1CC#N (centres unmarked) [Compound 21, 2-(1-acryloyl-4-(2-(2-(2-(dimethylamino)cyclopentyl)ethoxy)-7-(naphthalen-1-yl)-5,6,7,8-tetrahydropyrido[3,4-d]pyrimidin-4-yl)piperazin-2-yl)acetonitrile] | > 1 µM |  | 
15 | C=CC(=O)N1CCN(c2nc(OCC3CC3CN(C)C)nc3c2CCN(c2cccc4ccccc24)C3)CC1CC#N (centres unmarked) [Compound 19, 2-(1-acryloyl-4-(2-((2-((dimethylamino)methyl)cyclopropyl)methoxy)-7-(naphthalen-1-yl)-5,6,7,8-tetrahydropyrido[3,4-d]pyrimidin-4-yl)piperazin-2-yl)acetonitrile] | 0.749 µM | 0.372 µM | 
16 | C=CC(=O)N1CCN(c2nc(O[C@H]3CC[C@H](N(C)C)CC3)nc3c2CCN(c2cccc4ccccc24)C3)CC1CC#N (some centres unmarked) [Compound 1, 2-(1-acryloyl-4-(2-(((1r,4r)-4-(dimethylamino)cyclohexyl)oxy)-7-(naphthalen-1-yl)-5,6,7,8-tetrahydropyrido[3,4-d]pyrimidin-4-yl)piperazin-2-yl)acetonitrile] | 3.2 µM |  | 
17 | C=CC(=O)N1CCN(c2nc(OCC3(N4CCCC4)CC3)nc3c2CCN(c2cccc4ccccc24)C3)CC1CC#N (centres unmarked) [Compound 32, 2-(1-acryloyl-4-(7-(naphthalen-1-yl)-2-((1-(pyrrolidin-1-yl)cyclopropyl)methoxy)-5,6,7,8-tetrahydropyrido[3,4-d]pyrimidin-4-yl)piperazin-2-yl)acetonitrile] |  |  | 0.697 µM
18 | C=C(F)C(=O)N1CCN(c2nc(OCC3(CN4CCC(F)(F)C4)CC3)nc3c2CCN(c2cccc4cccc(C)c24)C3)CC1CC#N (centres unmarked) [Compound 81, 2-(4-(2-((1-((3,3-difluoropyrrolidin-1-yl)methyl)cyclopropyl)methoxy)-7-(8-methylnaphthalen-1-yl)-5,6,7,8-tetrahydropyrido[3,4-d]pyrimidin-4-yl)-1-(2-fluoroacryloyl)piperazin-2-yl)acetonitrile] |  | > 0.5 µM | 
